Results from patent publication US20090042773A1, “P13 kinase gamma inhibitors for the treatment of anaemia” (priority 2004, published 2009).

Experiments:
[1] = tested on: K562 erythroleukemia cells; details: Neri et al., Cellular Signalling 14 (2002) 21; cited from earlier work
[2] = target: T1, Human recombinant GST-PI3Kδ (Homo sapiens, UniProt O00329)
T1 sequence (O00329 1-1044): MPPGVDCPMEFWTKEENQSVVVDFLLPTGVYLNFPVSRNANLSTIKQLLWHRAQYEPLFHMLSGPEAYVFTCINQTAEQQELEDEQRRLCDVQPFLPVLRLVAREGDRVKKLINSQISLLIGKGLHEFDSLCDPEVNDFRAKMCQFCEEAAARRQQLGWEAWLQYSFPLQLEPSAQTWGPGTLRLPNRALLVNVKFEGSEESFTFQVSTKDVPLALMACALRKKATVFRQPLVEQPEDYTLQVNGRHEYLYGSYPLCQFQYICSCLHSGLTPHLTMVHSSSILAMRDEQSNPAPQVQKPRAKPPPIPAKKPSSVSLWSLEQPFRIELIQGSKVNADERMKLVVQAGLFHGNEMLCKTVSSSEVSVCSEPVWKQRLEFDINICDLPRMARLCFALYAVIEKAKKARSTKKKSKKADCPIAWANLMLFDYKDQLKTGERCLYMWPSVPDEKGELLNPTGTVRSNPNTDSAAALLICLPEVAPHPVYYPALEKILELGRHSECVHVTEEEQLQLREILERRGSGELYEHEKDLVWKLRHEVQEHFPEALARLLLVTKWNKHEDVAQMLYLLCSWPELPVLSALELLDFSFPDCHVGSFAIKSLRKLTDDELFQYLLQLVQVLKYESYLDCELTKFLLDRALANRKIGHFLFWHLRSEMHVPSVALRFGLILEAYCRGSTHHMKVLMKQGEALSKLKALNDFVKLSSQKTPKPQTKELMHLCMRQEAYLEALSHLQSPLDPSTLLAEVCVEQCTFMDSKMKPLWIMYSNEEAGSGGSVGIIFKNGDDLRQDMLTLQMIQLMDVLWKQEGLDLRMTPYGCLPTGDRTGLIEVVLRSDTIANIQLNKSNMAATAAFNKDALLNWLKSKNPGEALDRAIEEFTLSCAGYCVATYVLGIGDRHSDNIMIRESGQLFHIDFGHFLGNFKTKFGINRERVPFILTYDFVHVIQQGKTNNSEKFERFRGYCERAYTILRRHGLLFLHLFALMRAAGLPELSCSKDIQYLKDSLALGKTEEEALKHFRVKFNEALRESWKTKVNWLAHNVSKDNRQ

[3] = target: Human recombinant GST-PI3Kα (Homo sapiens, UniProt P42336)
[4] = target: Human recombinant GST-PI3Kγ (Homo sapiens, UniProt P48736)
CD34+ progenitor cells = details: Myklebust et al., Experimental Hematology 30 (2002), 990; cited from earlier work
[5] = tested on: Mobilized CD34 positive stem cells; test: EPO induced erythrocyte formation (stem cell culture, colony assay, flow cytometry); format: cell-based
Description: b) EPO Induced Erythrocyte Formation:
Investigation of the effect of PI3K inhibitors on the differentiation of red cell population, but also on the expansion of undifferentiated stem cells. Two different culture systems. A and B, were explored.
Culture System A (Containing No IL-3):
Differentiation of bone-marrow derived stem cells into the red cell line only. Semi-optimal systems in respect of the expansion of colony forming units, because of the lack of IL3 and other early acting growth factors.
The culture conditions are: IMDM-culture medium, 30% pre-selected fetal calf serum, 1% BSA, Glutamine 40 ug/ml iron saturated transferin, 10−6 Mol Mercaptoethanol, 10 ng/ml SCF, 100 U/ml IL6, 7 U Epo.
Culture System B (Containing IL-3):
Colony forming unit assay. […]
Colony forming units and the expression of Glycophorin A (marker) on the cell surface were used as markers for stem cell erythropoesis. Additionally, the presence of the cell surface antigen CD34 was also monitored to assess the differentiation status of the in vitro expanded cell lineage.
Relative expansion rate of GlyA-positive cells: At day 0, the stage of differentiation only few, if any cells, are GlyA positive. […] The expansion rate is calculated as the absolute number of GlyA-positive cells at the time point of interest divided by the absolute number of GlyA-positive cells in the starting material.

Sequence of Human recombinant GST-PI3Kα (P42336 whole entry): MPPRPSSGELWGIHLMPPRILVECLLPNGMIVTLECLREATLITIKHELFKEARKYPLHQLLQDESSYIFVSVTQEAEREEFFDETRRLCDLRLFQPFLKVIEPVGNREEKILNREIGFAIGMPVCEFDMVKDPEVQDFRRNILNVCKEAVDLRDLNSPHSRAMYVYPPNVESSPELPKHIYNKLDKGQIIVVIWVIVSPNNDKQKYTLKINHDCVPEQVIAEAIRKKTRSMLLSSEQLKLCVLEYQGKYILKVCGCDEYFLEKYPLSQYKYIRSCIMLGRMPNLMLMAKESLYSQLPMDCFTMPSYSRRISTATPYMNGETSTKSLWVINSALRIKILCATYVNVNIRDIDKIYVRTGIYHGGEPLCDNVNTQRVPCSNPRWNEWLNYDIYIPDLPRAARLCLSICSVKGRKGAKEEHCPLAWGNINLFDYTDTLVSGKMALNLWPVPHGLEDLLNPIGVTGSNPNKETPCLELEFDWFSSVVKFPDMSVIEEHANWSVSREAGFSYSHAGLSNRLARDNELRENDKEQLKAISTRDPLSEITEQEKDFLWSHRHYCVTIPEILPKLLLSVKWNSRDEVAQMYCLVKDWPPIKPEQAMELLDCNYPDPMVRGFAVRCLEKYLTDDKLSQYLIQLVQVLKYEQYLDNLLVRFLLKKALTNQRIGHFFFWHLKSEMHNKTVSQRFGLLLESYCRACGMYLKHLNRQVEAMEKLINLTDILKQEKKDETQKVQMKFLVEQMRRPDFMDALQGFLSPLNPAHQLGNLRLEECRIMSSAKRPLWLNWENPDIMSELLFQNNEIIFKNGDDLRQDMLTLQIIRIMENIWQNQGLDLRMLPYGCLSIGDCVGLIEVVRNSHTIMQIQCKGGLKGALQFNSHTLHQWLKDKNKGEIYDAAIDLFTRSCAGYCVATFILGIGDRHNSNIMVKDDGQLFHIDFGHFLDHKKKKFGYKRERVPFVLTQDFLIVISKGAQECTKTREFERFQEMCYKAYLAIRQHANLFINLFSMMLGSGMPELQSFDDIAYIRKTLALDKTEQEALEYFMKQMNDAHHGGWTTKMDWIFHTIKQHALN
Sequence of Human recombinant GST-PI3Kγ (P48736 whole entry): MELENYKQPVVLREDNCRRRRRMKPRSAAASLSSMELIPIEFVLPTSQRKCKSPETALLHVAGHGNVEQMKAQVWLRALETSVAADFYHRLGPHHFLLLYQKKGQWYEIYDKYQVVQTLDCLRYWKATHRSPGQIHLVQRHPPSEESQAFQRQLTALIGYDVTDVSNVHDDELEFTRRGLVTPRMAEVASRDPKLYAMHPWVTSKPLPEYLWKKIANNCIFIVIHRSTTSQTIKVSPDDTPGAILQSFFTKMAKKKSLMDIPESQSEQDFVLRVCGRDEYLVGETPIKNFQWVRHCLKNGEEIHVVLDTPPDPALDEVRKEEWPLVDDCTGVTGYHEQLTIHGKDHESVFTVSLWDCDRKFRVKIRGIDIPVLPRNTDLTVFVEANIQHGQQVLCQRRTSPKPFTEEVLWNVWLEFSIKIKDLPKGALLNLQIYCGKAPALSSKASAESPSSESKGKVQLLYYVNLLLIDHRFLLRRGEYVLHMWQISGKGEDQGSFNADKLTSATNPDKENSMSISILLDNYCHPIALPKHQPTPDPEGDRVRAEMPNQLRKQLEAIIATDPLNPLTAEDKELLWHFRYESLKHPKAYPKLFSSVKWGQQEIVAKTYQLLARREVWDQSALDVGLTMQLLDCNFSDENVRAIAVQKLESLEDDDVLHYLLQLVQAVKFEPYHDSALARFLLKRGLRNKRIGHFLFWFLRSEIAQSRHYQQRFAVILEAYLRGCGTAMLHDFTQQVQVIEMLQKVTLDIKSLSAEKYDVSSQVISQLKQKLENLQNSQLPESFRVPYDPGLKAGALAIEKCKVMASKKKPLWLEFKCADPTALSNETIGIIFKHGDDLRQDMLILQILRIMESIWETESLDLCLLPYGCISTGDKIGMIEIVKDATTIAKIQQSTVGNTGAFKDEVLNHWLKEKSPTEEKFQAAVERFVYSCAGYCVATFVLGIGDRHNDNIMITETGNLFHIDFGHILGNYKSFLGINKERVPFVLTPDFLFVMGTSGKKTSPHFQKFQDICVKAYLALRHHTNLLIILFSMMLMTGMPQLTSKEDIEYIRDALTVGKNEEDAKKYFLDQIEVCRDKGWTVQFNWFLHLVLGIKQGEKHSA

Row | SMILES | IC50 [2] | IC50 [3] | IC50 [4] | other results
1 | COC[C@H]1OC(=O)c2coc3c2[C@@]1(C)C1=C(C3=O)[C@@H]2CCC(=O)[C@@]2(C)C[C@H]1OC(C)=O [Wortmannin, wortmannin] | – | – | – | effect on EPO induced erythroid differentiation of K562 cells [1]: prevents K562 erythroleukemia cells from EPO induced erythroid differentiation
2 | O=C1NC(=O)C(=Cc2ccc3nonc3c2)S1 [Example 12, 5-Benzo[1,2,5]oxadiazol-5-ylmethylene-thiazolidine-2,4-ione] | 2.73 µM | 0.37 µM | 0.035 µM | –
3 | O=C1NC(=O)C(=Cc2ccc3cc(F)oc3c2)S1 [Example 13, 5-(2-Fluoro-benzofuran-6-ylmethylene)-thiazolidine-2,4-dione] | – | 1.2 µM | 0.29 µM | –
4 | Cc1coc2ccc(C=C3SC(=O)NC3=O)cc12 [Example 8, 5-(3-Methyl-benzofuran-5-ylmethylene)-thiazolidine-2,4-dione] | 1.97 µM | 0.135 µM | 0.03 µM | –
5 | O=C(O)C=Cc1coc2ccc(C=C3SC(=O)NC3=O)cc12 [Example 9, 3-[5-(2,4-Dioxo-thiazolidin-5-ylidenemethyl)benzofuran-3-yl]-acrylic acid] | 2.48 µM | 0.032 µM | 0.008 µM | –
6 | N=C1NC(=O)C(=Cc2ccc3c(c2)OCO3)S1 [Example 7, 5-(1,3-benzodioxol-5-ylmethylene)-2-imino-1,3-thiazolidin-4-one] | – | – | 0.71 µM | –
7 | Nc1noc2ccc(C=C3SC(=O)NC3=O)cc12 [Example 11, 5-(3-Amino-benzo[d]isoxazol-5-ylmethylene)thiazolidine-2,4-dione] | 10 µM | 0.46 µM | 0.095 µM | –
8 | O=c1cc(N2CCOCC2)oc2c(-c3ccccc3)cccc12 [LY294002] | – | – | – | effect on EPO induced erythropoiesis from CD34+ progenitor cells (CD34+ progenitor cells): inhibit EPO induced erythropoiesis
9 | O=C1NC(=O)C(=Cc2ccc3c(c2)OCO3)S1 [Example 1, 5-(1,3-benzodioxol-5-ylmethylene)-1,3-thiazolidine-2,4-dione] | 1.7 µM | 0.25 µM | 0.07 µM | increase of the expansion of nucleated cells over the control ([5]; in 13 days, compound added at day 1): 4 fold; cell proliferation ([5]; same culture, 13 days): not enhanced
10 | N#CN=C1NC(=O)C(=Cc2ccc3c(c2)OCO3)S1 [Example 14, 5-Benzo[1,3]dioxol-5-ylmethylene-4-oxo-thiazolidin-2-ylidene-cyanamide] | 1.17 µM | 0.231 µM | 0.021 µM | –
11 | O=C1NC(=O)C(=Cc2ccc3c(c2)OCCO3)S1 [Example 3, 5-(2,3-dihydro-1,4-benzodioxin-6-ylmethylene)-1,3-thiazolidine-2,4-dione] | – | 0.31 µM | 0.05 µM | –
12 | O=C1NC(=O)C(=Cc2ccc3c(c2)NCCO3)S1 [Example 10, 5-(3,4-Dihydro-2H-benzo[1,4]oxazin-6-ylmethylene)-thiazolidine-2,4-dione] | – | 2.1 µM | 0.59 µM | –
13 | CN1C(=O)COc2ccc(C=C3SC(=O)NC3=O)cc21 [Example 6, 5-[(4-methyl-3-oxo-3,4-dihydro-2H-1,4-benzoxazin-6-yl)methylene]-1,3-thiazolidine-2,4-dione] | – | 0.17 µM | 0.03 µM | –
14 | O=C1NC(=O)C(=Cc2ccc3c(c2)C(=O)c2ccccc2C3=O)S1 [Example 4, 5-[(9,10-dioxo-9,10-dihydroanthracen-2-yl)methylene]-1,3-thiazolidine-2,4-dione] | 4.87 µM | 1.37 µM | 0.316 µM | –
15 | O=C1NC(=S)SC1=Cc1ccc2c(c1)OCO2 [Example 2, 5-(1,3-benzodioxol-5-ylmethylene)-2-thioxo-1,3-thiazolidin-4-one] | – | 0.45 µM | 0.115 µM | –
